The values that follow come from PubChem BioAssay AID330 (DTP/NCI, 2004).

Where “and” joins values, the source holds several entries; their conditions need not be identical. Equal values may be shown once. Toxic doses and inconclusive results are not listed.

The assay has as its system P388 leukemia ip, CD2F1 mice, survival T/C. Put plainly: NCI In Vivo Anticancer Drug Screen. Data for tumor model P388 Leukemia (intraperitoneal) in CD2F1 (CDF1) mice. The conditions noted are these: endpoint: median survival time, higher = longer survival. The essentials:
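Mice carrying the transplanted tumor received test compound or vehicle. Survival was recorded in each group, and the value is the treated-group measurement divided by that of the vehicle-treated control group.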

Setting [1] is: dose: 25.0 mg/kg/injection, schedule: Q01DX009 (ip), vehicle: saline with Tween-80.
[2] abbreviates: dose: 50.0 mg/kg/injection, schedule: Q01DX009 (ip), vehicle: saline with Tween-80.
[3] abbreviates: dose: 100.0 mg/kg/injection, schedule: Q01DX009 (ip), vehicle: saline with Tween-80.
[4] abbreviates: dose: 50.0 mg/kg/injection, schedule: Q01DX005 (ip), vehicle: saline with Tween-80.
[5] abbreviates: dose: 100.0 mg/kg/injection, schedule: Q01DX005 (ip), vehicle: saline with Tween-80.
Where [6] appears, read: dose: 200.0 mg/kg/injection, schedule: Q01DX005 (ip), vehicle: saline with Tween-80.
[7] abbreviates: dose: 50.0 mg/kg/injection, schedule: Q01DX005 (ip), vehicle: Klucel (hydroxypropylcellulose) (HPC).
Setting [8] is: dose: 100.0 mg/kg/injection, schedule: Q01DX005 (ip), vehicle: Klucel (hydroxypropylcellulose) (HPC).
Setting [9] is: dose: 200.0 mg/kg/injection, schedule: Q01DX005 (ip), vehicle: Klucel (hydroxypropylcellulose) (HPC).
[10] abbreviates: dose: 60.0 mg/kg/injection, schedule: Q01DX005 (ip), vehicle: Klucel (hydroxypropylcellulose) (HPC).
[11] abbreviates: dose: 120.0 mg/kg/injection, schedule: Q01DX005 (ip), vehicle: Klucel (hydroxypropylcellulose) (HPC).
The mark [12] stands for this setting: dose: 100.0 mg/kg/injection, schedule: Q04DX003 (ip), vehicle: saline with Tween-80.
The mark [13] stands for this setting: dose: 200.0 mg/kg/injection, schedule: Q04DX003 (ip), vehicle: saline with Tween-80.
[14] abbreviates: dose: 50.0 mg/kg/injection, schedule: Q01DX009 (ip), vehicle: saline.
Setting [15] is: dose: 100.0 mg/kg/injection, schedule: Q01DX009 (ip), vehicle: saline.
The mark [16] stands for this setting: dose: 200.0 mg/kg/injection, schedule: Q01DX009 (ip), vehicle: saline.
The mark [17] stands for this setting: dose: 200.0 mg/kg/injection, schedule: Q01DX009 (ip), vehicle: saline with Tween-80.
[18] abbreviates: dose: 15.0 mg/kg/injection, schedule: Q01DX005 (ip), vehicle: Klucel (hydroxypropylcellulose) (HPC).
Where [19] appears, read: dose: 30.0 mg/kg/injection, schedule: Q01DX005 (ip), vehicle: Klucel (hydroxypropylcellulose) (HPC).
The mark [20] stands for this setting: dose: 6.25 mg/kg/injection, schedule: Q01DX009 (ip), vehicle: saline.

`Nc1c[nH]c(=S)s1`: the T/C is 116 % of control under setting [1], 114 % of control under setting [2] and 94 % of control under setting [3].

Consider `CCOC(=O)C1CCCC(=O)C1Cc1cccc(OC)c1` (stereo unspecified), for which the T/C is, setting by setting: (dose: 50.0 mg/kg/injection, schedule: Q01DX009 (ip), vehicle: other) 100 % of control; (dose: 100.0 mg/kg/injection, schedule: Q01DX009 (ip), vehicle: other) 106 % of control; (dose: 200.0 mg/kg/injection, schedule: Q01DX009 (ip), vehicle: other) 100 % of control.

As to `O=C1c2ccccc2-c2c1c1ccccc1c(=O)n2-c1cccnc1`, the T/C is, setting by setting: under setting [4], 111 % of control; under setting [5], 101 % of control; under setting [6], 97 % of control.

As for `CC(C)(C)NCC(O)CCl` (stereo unspecified), the T/C by setting is: (dose: 25.0 mg/kg/injection, schedule: Q01DX009 (ip), vehicle: water) 113 % of control; (dose: 50.0 mg/kg/injection, schedule: Q01DX009 (ip), vehicle: water) 99 % of control; (dose: 100.0 mg/kg/injection, schedule: Q01DX009 (ip), vehicle: water) 99 % of control; (dose: 200.0 mg/kg/injection, schedule: Q01DX009 (ip), vehicle: water) 103 % of control.

On to `Cc1ccc(NC(=O)N2CC(C)OC(C)C2)cc1[N+](=O)[O-]` (stereo unspecified), for which the T/C is, setting by setting: under setting [7], 103 % of control; under setting [8], 99 % of control; under setting [9], 94 % of control.

Consider `CN(C)C(=O)c1nc(CNC(=O)CN)n(-c2ccc(Cl)cc2C(=O)c2ccccc2)n1`, for which the T/C by setting is: under setting [10], 103 % of control; under setting [11], 100 % of control.

Take `CSc1nc2ccc(N)cc2s1`: the T/C is 97 % of control under setting [12]; 99 % of control under setting [13]; 93 % of control (dose: 400.0 mg/kg/injection, schedule: Q04DX003 (ip), vehicle: saline with Tween-80).

Take `CCCc1c2c(c(CCC)c3c1-c1cccc4cccc-3c14)-c1ccccc1C2=O`: the T/C under setting [12] is 105 % of control and the T/C under setting [13] was 95 % of control.

With `CC1C(=O)OCC1(C)O` (stereo unspecified), the T/C is 107 % of control (dose: 60.0 mg/kg/injection, schedule: Q01DX005 (ip), vehicle: saline); 103 % of control (dose: 120.0 mg/kg/injection, schedule: Q01DX005 (ip), vehicle: saline); 109 % of control (dose: 240.0 mg/kg/injection, schedule: Q01DX005 (ip), vehicle: saline).

As to `N#CC(C#N)=C1Sc2nc3ccc([N+](=O)[O-])cc3nc2S1`, the T/C is, setting by setting: under setting [14], 109 % of control; under setting [15], 90 % of control; under setting [16], 118 % of control.

`CC(C(=O)O)C1(O)CCCCC1` (stereo unspecified): the T/C is 99 % of control (dose: 12.5 mg/kg/injection, schedule: Q01DX009 (ip), vehicle: saline with Tween-80); 105 % of control under setting [1]; 102 % of control under setting [2]; 106 % of control under setting [3].

For the compound `O=C(CCCBr)c1ccccc1`, the T/C is, setting by setting: under setting [1], 107 % of control; under setting [2], 100 % of control; under setting [3], 107 % of control; under setting [17], 100 % of control.

Take `CC(C)(C)N=C(CCN1CCOCC1)Nc1ccccc1Cl`: the T/C under setting [2] was 113 % of control, the T/C under setting [3] is 106 % of control and the T/C under setting [17] is 109 % of control.

`C=CCOc1cc2c(cc1C(C)c1cc(OC)c(OC)c(OC)c1)OCO2` (stereo unspecified): the T/C was 101 % of control under setting [4], 99 % of control under setting [5] and 108 % of control under setting [6].

Turning to `CN(C)C1=NC(N(C)C)=C2C=CC=C12`, the T/C under setting [18] is 103 % of control, the T/C under setting [19] was 97 % of control and the T/C under setting [10] was 96 % of control.

`Nc1nc(N)c2cc(CNc3ccc(C(=O)NC(CC(=O)O)C(=O)O)cc3)ccc2n1` (stereo unspecified): the T/C (dose: 0.13 mg/kg/injection, schedule: Q04DX003 (ip), vehicle: saline with Tween-80) is 109 % of control; the T/C (dose: 0.25 mg/kg/injection, schedule: Q04DX003 (ip), vehicle: saline with Tween-80) is 113 % of control; the T/C (dose: 0.5 mg/kg/injection, schedule: Q01DX009 (ip), vehicle: saline) was 181 % of control; the T/C (dose: 1.0 mg/kg/injection, schedule: Q01DX009 (ip), vehicle: saline) is 200 % of control; the T/C (dose: 1.0 mg/kg/injection, schedule: Q04DX003 (ip), vehicle: saline with Tween-80) was 150 % of control; the T/C (dose: 1.56 mg/kg/injection, schedule: Q01DX009 (ip), vehicle: saline) is 222 % of control. Also, the T/C was 259 % of control (dose: 3.13 mg/kg/injection, schedule: Q01DX009 (ip), vehicle: saline) and 90 % of control under setting [20].

`O=C1C(N=Nc2ccc(Br)cc2)Sc2nc3ccccc3n21` (stereo unspecified): the T/C runs as follows: under setting [10], 89 % of control; under setting [11], 89 % of control.

As to `CCCCCC(CSCC)C(=O)/C=C/c1ccc(Cl)c(Cl)c1` (stereo unspecified), the T/C (dose: 12.5 mg/kg/injection, schedule: Q01DX009 (ip), vehicle: distilled water + Tween-80) is 101 % of control; the T/C (dose: 25.0 mg/kg/injection, schedule: Q01DX009 (ip), vehicle: distilled water + Tween-80) is 105 % of control; the T/C (dose: 50.0 mg/kg/injection, schedule: Q01DX009 (ip), vehicle: distilled water + Tween-80) is 103 % of control and 104 % of control; the T/C (dose: 100.0 mg/kg/injection, schedule: Q01DX009 (ip), vehicle: distilled water + Tween-80) is 105 % of control and 109 % of control; the T/C (dose: 200.0 mg/kg/injection, schedule: Q01DX009 (ip), vehicle: distilled water + Tween-80) is 120 % of control and 124 % of control; the T/C (dose: 400.0 mg/kg/injection, schedule: Q01DX009 (ip), vehicle: distilled water + Tween-80) was 119 % of control.

With `C/C=C1/CN2CCC34c5ccccc5N5C(=O)C(C6CC78c9ccccc9N9C(=O)C=CC(C%10CC7N6C/C%10=C/C)C98)=CC(C1CC23)C54` (stereo unspecified), the T/C is, setting by setting: (dose: 10.0 mg/kg/injection, schedule: Q01DX009 (ip), vehicle: saline with Tween-80) 99 % of control; (dose: 20.0 mg/kg/injection, schedule: Q01DX009 (ip), vehicle: saline with Tween-80) 104 % of control; (dose: 40.0 mg/kg/injection, schedule: Q01DX009 (ip), vehicle: saline with Tween-80) 104 % of control; (dose: 80.0 mg/kg/injection, schedule: Q01DX009 (ip), vehicle: saline with Tween-80) 88 % of control.

With `Cc1cc2c3c([nH]c2cc1[N+](=O)[O-])CCCC3=O`, the T/C (dose: 25.0 mg/kg/injection, schedule: Q01DX005 (ip), vehicle: Klucel (hydroxypropylcellulose) (HPC)) was 88 % of control; the T/C under setting [7] was 88 % of control; the T/C under setting [8] is 86 % of control; the T/C under setting [9] is 90 % of control.

Consider `CCCCCCC[CH2][Sn]([S][Sn]([CH2]CCCCCCC)([c]1ccccc1)[c]1ccccc1)([c]1ccccc1)[c]1ccccc1`, for which the T/C runs as follows: under setting [20], 101 % of control; (dose: 12.5 mg/kg/injection, schedule: Q01DX009 (ip), vehicle: saline) 98 % of control; (dose: 25.0 mg/kg/injection, schedule: Q01DX009 (ip), vehicle: saline) 101 % of control; under setting [16], 86 % of control.

In the case of `c1csc(SSc2nccs2)n1`, the T/C runs as follows: (dose: 25.0 mg/kg/injection, schedule: Q04DX002 (ip), vehicle: saline with Tween-80) 104 % of control; (dose: 50.0 mg/kg/injection, schedule: Q04DX002 (ip), vehicle: saline with Tween-80) 103 % of control; (dose: 100.0 mg/kg/injection, schedule: Q04DX002 (ip), vehicle: saline with Tween-80) 103 % of control and 105 % of control.

Consider `COc1cc(OC(C)C)cc2c1C(=O)C(C(O)(O)C(F)(F)F)=CC2=O`, for which the T/C is 109 % of control under setting [18], 103 % of control under setting [19] and 99 % of control under setting [10].

Take `CCNC(=O)OCCN(CC)CC`: the T/C by setting is: under setting [14], 103 % of control; under setting [15], 103 % of control; under setting [16], 104 % of control.

For `C/C(N)=C(\C#N)C(=O)c1ccccc1`, the T/C by setting is: under setting [7], 100 % of control; under setting [8], 103 % of control; under setting [9], 111 % of control.
